Like-named read-outs stand apart in the source and are kept apart here.
Assays:
postmenopausal women = postmenopausal women with high bone marker levels at baseline, daily doses 60 mg and 90 mg, 12 weeks
Method: In the clinical trials, bone turnover was evaluated by measuring the levels of bone formation markers in serum and bone resorption markers in urine. Both bone resorption markers e.g. amino terminal telopeptide of type I collagen (U-NTX) and carboxy terminal telopeptide of type I collagen (U-CTX) and formation markers e.g. amino terminal propeptide of type I procollagen (S-PINP) and carboxy terminal propeptide of type I procollagen (S-PICP) are increased in menopause, indicating high bone turnover.
Most of the women had normal bone marker levels at baseline. […] The upper limit of normal range in women was 84 μg/l for S-PINP, 65 nmol/mmol Crea for U-NTX, 170 μg/l for S-PICP and 680 μg/mmol Crea for U-CTX.

[1] = test system: ovariectomized (OVX) female rats; conditions: female rats 2 months old, ospemifene 10 mg/kg, change from baseline, n = 6
Method: (§1) High bone turnover was induced to 2-4 months old female rats by ovariectomy (OVX). Treatment with ospemifene was started at different time points after OVX: 1 day, 1, 2, and 3 months after OVX. Bone resorption was evaluated in short-term by bone specific TRAP5b, which is a […] secreted specifically by osteoclasts, and later by pyridinoline/deoxypyridinoline cross links, which are degradation products of bone collagen and excreted in the urine. Finally, during autopsy, usually after 3 months treatment, trabecular bone mineral density was measured.

[2] = test system: ovariectomized (OVX) female rats; conditions: for Urine total pyridinoline/deoxypyridoline crosslinks, change from base line at 30 days: started one day after OVX, 30 days after OVX; for Trabecular BMD mg/cm^2: 3 months treatment, tibial trabecular bone
Method: as §1
Female rats, age about 4 months, were ovariectomized. Treatment with vehicle or ospemifene was started at different periods after OVX (from one day to 3 months). The ospemifene doses were 5, 10 or 25 mg/kg and the treatment period was 3 months. Evaluation of the bone occurred by bone mineral density measurement of tibial trabecular bone after the treatment and in some groups also by bone collagen degradation products excreted in the urine.

SMILES: OCCOc1ccc(/C(=C(/CCCl)c2ccccc2)c2ccccc2)cc1 [Ospemifene]
- Change in bone formation and resorption markers (S-PINP, S-PICP, U-CTX, U-NTX) (in words) (postmenopausal women): large decrease both in formation and resorption bone markers
- Change of TRAP5b activity in serum (%) 2 days after OVX [1]: −23.3 ± 5.8%
- Urine total pyridinoline/deoxypyridoline crosslinks, change from base line at 30 days ([2]; 5 mg/kg daily): 55 ± 16
- Trabecular BMD mg/cm^2 ([2]; 5 mg/kg, treatment started 1 day after OVX, n = 20): 374 ± 21 mg/cm^2
- Trabecular BMD mg/cm^2 ([2]; 10 mg/kg, treatment started 1 month after OVX, n = 8): 138 ± 24 mg/cm^2
- Trabecular BMD mg/cm^2 ([2]; 10 mg/kg, treatment started 2 months after OVX, n = 8): 78 ± 14 mg/cm^2
- Trabecular BMD mg/cm^2 ([2]; 10 mg/kg, treatment started 3 months after OVX, n = 8): 78 ± 17 mg/cm^2
- Urine total pyridinoline/deoxypyridoline crosslinks, change from base line at 30 days ([2]; 25 mg/kg daily): 33 ± 20
- Trabecular BMD mg/cm^2 ([2]; 25 mg/kg, treatment started 1 day after OVX, n = 20): 392 ± 15 mg/cm^2
- Excretion of crosslinks, resorption marker (in words) ([2]; first month after OVX, high bone turnover): significantly decreases the excretion of crosslinks
- Effect on OVX-induced bone loss (in words) ([2]; treatment started 1 month after OVX, bone turnover high): significant beneficial bone effect
- Effect on OVX-induced bone loss (in words) ([2]; treatment started 2 months after OVX, bone turnover markedly decreased): modest beneficial bone effect
- Effect on OVX-induced bone loss (in words) ([2]; treatment started 3 months after OVX, bone turnover low): almost lost the benefial bone effect
- Effect on OVX-induced bone loss (in words) ([2]; treatment started 1 day after OVX, bone turnover very high): able to prevent almost completely the OVX-induced bone loss
